Experimental data: patent EP4610269A1, “UROKINASE PLASMINOGEN ACTIVATOR SURFACE RECEPTOR (UPAR) LIGANDS FOR DIAGNOSTIC OR THERAPEUTIC USE” (3B Pharmaceuticals GmbH, priority 2024, dated 2025)
Where two headings read alike, the source gives them in different places. Where a SMILES comes first, the peptide text is derived from it. Bridges are numbered along the chain shown (N, C = ends). [ ]: non-standard residue; d: D form. The star is where a group is joined. DOTA(Lu) = O=C1CN2CCN3CCN(CC(=O)*)CCN(CC2)CC(=O)[O][Lu]([O]1)[O]C(=O)C3; DOTA = O=C(O)CN1CCN(CC(=O)O)CCN(CC(=O)*)CCN(CC(=O)O)CC1; NOTA = O=C(O)CN1CCN(CC(=O)O)CCN(CC(=O)*)CC1; Pro(cis-4-F) = O=C(O)[C@@H]1C[C@H](F)CN1; Dopa = N[C@@H](Cc1ccc(O)c(O)c1)C(=O)O; Hyp = O=C(O)[C@@H]1C[C@@H](O)CN1; Pentanoyl(4-Me) = CC(C)CCC(=O)*; Cha = N[C@@H](CC1CCCCC1)C(=O)O; Cit = NC(=O)NCCC[C@H](N)C(=O)O; Butoxycarbonyl = CCCCOC(=O)*; NMeS = CN[C@@H](CO)C(=O)O; Octanoyl = CCCCCCCC(=O)*; Nva = CCC[C@H](N)C(=O)O; Pentanoyl = CCCCC(=O)*

Tests used:
[1] = target: T1, uPAR-expressing HEC-265 human endometrial adenocarcinoma cells (Homo sapiens, UniProt Q03405); assay: Competitive FACS binding assay; settings: pIC50 category of FACS binding
T1 construct: Cell surface uPAR-expressing HEC-265 human endometrial adenocarcinoma cells; host or cells: HEC-265
T1 sequence (Q03405 23-335): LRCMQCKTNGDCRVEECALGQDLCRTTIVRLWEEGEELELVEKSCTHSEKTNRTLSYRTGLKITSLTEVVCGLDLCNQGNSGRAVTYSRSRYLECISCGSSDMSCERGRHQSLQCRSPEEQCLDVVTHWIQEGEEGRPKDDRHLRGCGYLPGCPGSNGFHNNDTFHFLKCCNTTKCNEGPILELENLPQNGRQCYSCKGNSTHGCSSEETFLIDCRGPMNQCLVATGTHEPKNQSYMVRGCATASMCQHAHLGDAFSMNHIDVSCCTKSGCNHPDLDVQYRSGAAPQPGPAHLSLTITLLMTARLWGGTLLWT
Outline: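 HEC-265 cells incubated 1 h at 4 °C with 10 nM biotinylated uPAR peptide tracer plus increasing test compound, then stained with APC-streptavidin on ice. Median APC fluorescence by flow cytometry; 4PL fit gives pIC50.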

human uPAR (uPAR-Fc) = target: T2, human uPAR (uPAR-Fc) (Homo sapiens, UniProt Q03405); assay: Surface plasmon resonance (SPR) assay, single cycle kinetics; format: binding; settings: pKD category for uPAR SPR activity assay, uPAR-Fc on Protein A-Chip, 25°C; for Kd: read-out: pKD CAT (converted)
T2 construct: comprising amino acids Leu23-Arg303 according to UniProt entry Q03405.1; purchased R&D Systems 10378-UK-100
T2 sequence (Q03405 23-303): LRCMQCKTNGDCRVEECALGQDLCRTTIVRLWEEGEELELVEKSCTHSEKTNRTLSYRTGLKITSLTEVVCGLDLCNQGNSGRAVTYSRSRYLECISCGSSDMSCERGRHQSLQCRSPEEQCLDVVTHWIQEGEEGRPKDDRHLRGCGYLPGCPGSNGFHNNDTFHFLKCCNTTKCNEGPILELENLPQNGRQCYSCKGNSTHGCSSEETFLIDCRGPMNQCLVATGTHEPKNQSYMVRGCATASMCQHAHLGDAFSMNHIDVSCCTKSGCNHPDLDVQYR
Outline: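 uPAR-Fc (Leu23-Arg303 extracellular domains, human IgG1 Fc) captured on Protein A chip to ~2000 RU; single-cycle kinetics at 25°C in HEPES running buffer pH 7.4 with 0.1% DMSO. KD from double-referenced sensorgrams fitted to 1:1 Langmuir model, reported as pKD.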

Row | IC50 [1] [nM] | Kd (human uPAR (uPAR-Fc)) [nM] | pIC50 CAT [1] | pKD CAT (human uPAR (uPAR-Fc)) | Kd (human uPAR (uPAR-Fc); single cycle kinetics) [nM] | Compound
1 | ≤ 10 | < 1.58 | – | – | – | CC[C@H](C)[C@@H]1NC(=O)[C@@H]2C[C@H](F)CN2C(=O)[C@@H]2CCCN2C(=O)[C@H](Cc2ccccc2)NC(=O)[C@H](Cc2ccc(O)cc2)NC(=O)[C@H](CCC(N)=O)NC(=O)[C@H](CCCNC(N)=O)NC(=O)[C@@H](NC(=O)CCC(C)C)CSSC[C@@H](C(N)=O)NC(=O)[C@H](CC(C)C)NC1=O [UPAR-307, iHex-[Cys-Cit-Gln-Tyr-Phe-Pro-4Cfp-Ile-Leu-Cys]-NH2] ({Pentanoyl(4-Me)}-C[Cit]QYFP[Pro(cis-4-F)]ILC-NH2; disulfide 1-10)
2 | 39.8 to 100 | 10 to 100 | – | – | – | CCCCC(=O)N[C@H]1CSSC[C@@H](C(N)=O)NC(=O)[C@H](CCC)NC(=O)[C@H]([C@@H](C)CC)NC(=O)[C@H](CO)N(C)C(=O)[C@@H]2CCCN2C(=O)[C@H](Cc2ccccc2)NC(=O)[C@H](Cc2ccc(O)cc2)NC(=O)[C@H](CCCCNC(=O)CN2CCN(CC(=O)O)CCN(CC(=O)O)CCN(CC(=O)O)CC2)NC(=O)[C@H](CCCNC(N)=O)NC1=O [UPAR-277, Pent-[Cys-Cit-Lys(DOTA)-Tyr-Phe-Pro-Nms-Ile-Nva-Cys]-NH2] (Pentanoyl-C[Cit]K(DOTA)YFP[NMeS]I[Nva]C-NH2; disulfide 1-10)
3 | ≤ 10 | < 1.58 | – | – | – | CCCCCCCC(=O)N[C@H]1CSSC[C@@H](C(N)=O)NC(=O)[C@H](CCC)NC(=O)[C@H]([C@@H](C)CC)NC(=O)[C@@H]2C[C@@H](O)CN2C(=O)[C@@H]2CCCN2C(=O)[C@H](Cc2ccccc2)NC(=O)[C@H](Cc2ccc(O)cc2)NC(=O)[C@H](CCC(N)=O)NC(=O)[C@H](CCCNC(=N)N)NC1=O [UPAR-193, Oct-[Cys-Arg-Gln-Tyr-Phe-Pro-Hyp-Ile-Nva-Cys]-NH2] (Octanoyl-CRQYFP[Hyp]I[Nva]C-NH2; disulfide 1-10)
4 | – | – | A (pIC50 values ≥8.0) | A (pKD values ≥ 8.8) | – | Pent-[Cys-Asn-Lys(LuDOTA)-Tyr-Phe-Pro-Hyp-Ile-Nva-Cys]-NH2 (Pentanoyl-CNK(DOTA(Lu))YFP[Hyp]I[Nva]C-NH2; disulfide 1-10; not fully specified; also: Lu(III) complexed by DOTA) [UPAR-335]
5 | ≥ 126 | – | – | – | > 100 | CC[C@H](C)[C@@H]1NC(=O)[C@@H](C)NC(=O)[C@@H]2CCCN2C(=O)[C@H](Cc2ccccc2)NC(=O)[C@H](Cc2ccc(O)cc2)NC(=O)[C@H](CCC(N)=O)NC(=O)[C@H](CCCNC(N)=O)NC(=O)[C@@H](NC(=O)CCC(C)C)CSSC[C@@H](C(N)=O)NC(=O)[C@H](CC2CCCCC2)NC1=O [UPAR-474, iHex-[Cys-Cit-Gln-Tyr-Phe-Pro-ala-Ile-Cha-Cys]-NH2] ({Pentanoyl(4-Me)}-C[Cit]QYFP[dA]I[Cha]C-NH2; disulfide 1-10)
6 | ≤ 10 | 10 to 100 | – | – | – | CCCCC(=O)N[C@H]1CSSC[C@@H](C(N)=O)NC(=O)[C@H](CCC)NC(=O)[C@H]([C@@H](C)CC)NC(=O)[C@@H](CC(=O)O)NC(=O)[C@@H]2CCCN2C(=O)[C@H](Cc2ccccc2)NC(=O)[C@H](Cc2ccc(O)cc2)NC(=O)[C@H](CCC(N)=O)NC(=O)[C@H](CCCNC(=N)N)NC1=O [UPAR-161, Pent-[Cys-Arg-Gln-Tyr-Phe-Pro-asp-Ile-Nva-Cys]-NH2] (Pentanoyl-CRQYFP[dD]I[Nva]C-NH2; disulfide 1-10)
7 | ≤ 10 | – | – | – | < 1.58 | CCCCC(=O)N[C@H]1CSSC[C@@H](C(N)=O)NC(=O)[C@H](CCC)NC(=O)[C@H]([C@@H](C)CC)NC(=O)[C@@H]2C[C@@H](O)CN2C(=O)[C@@H]2CCCN2C(=O)[C@H](Cc2ccccc2)NC(=O)[C@H](Cc2ccc(O)c(O)c2)NC(=O)[C@H](CCCCNC(=O)CN2CCN(CC(=O)O)CCN(CC(=O)O)CCN(CC(=O)O)CC2)NC(=O)[C@H](CCCNC(N)=O)NC1=O [UPAR-399, Pent-[Cys-Cit-Lys(DOTA)-Dopa-Phe-Pro-Hyp-Ile-Nva-Cys]-NH2] (Pentanoyl-C[Cit]K(DOTA)[Dopa]FP[Hyp]I[Nva]C-NH2; disulfide 1-10)

Row | Compound | IC50 [1] [nM] | Kd (human uPAR (uPAR-Fc)) [nM] | pIC50 CAT [1] | pKD CAT (human uPAR (uPAR-Fc)) | Kd (human uPAR (uPAR-Fc); single cycle kinetics) [nM]
8 | CCCCOC(=O)N[C@H]1CSSC[C@@H](C(N)=O)NC(=O)[C@H](CCC)NC(=O)[C@H]([C@@H](C)CC)NC(=O)[C@@H]2C[C@@H](O)CN2C(=O)[C@@H]2C[C@H](F)CN2C(=O)[C@H](Cc2ccccc2)NC(=O)[C@H](Cc2ccc(O)c(O)c2)NC(=O)[C@H](CCCCNC(=O)CN2CCN(CC(=O)O)CCN(CC(=O)O)CC2)NC(=O)[C@H]([C@@H](C)O)NC1=O [UPAR-250, Butoc-[Cys-Thr-Lys(NOTA)-Dopa-Phe-4Cfp-Hyp-Ile-Nva-Cys]-NH2] (Butoxycarbonyl-CTK(NOTA)[Dopa]F[Pro(cis-4-F)][Hyp]I[Nva]C-NH2; disulfide 1-10) | ≤ 10 | < 1.58 | – | – | –
